In the supplement of paper PMC10331698:
± gives the standard deviation of the averaged measurements.

Experiments:
Test in all cases: level (log10 ratio to DMSO vehicle control); higher = higher biomarker level / cell amount than vehicle control
[1] = compound: O=S(=O)(Cl)C(F)(F)C(F)(F)C(F)(F)C(F)(F)C(F)(F)C(F)(F)C(F)(F)C(F)(F)F [Perfluoro-1-octanesulfonyl chloride]; details: in DMSO
Protocol: (§1)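 BioMAP Diversity Plus panel of 12 human primary cell co-culture systems (3C, 4H, LPS, SAg, BT, BF4T, BE3C, CASM3C, HDF3CGF, KF3CT, MyoF, Mphg). Compounds were added 1 h before stimulation and left for 24 h (MyoF 48 h; BT 72 h for soluble read-outs or 6 d for IgG). Biomarkers were read by ELISA, cytotoxicity by SRB, PBMC viability and proliferation by Alamar Blue. Each well value was divided by the mean of 8 DMSO control wells on the same plate and log10 transformed; duplicate blinded samples were tested at 4 concentrations.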

[2] = compound: O=C(O)C(F)(F)C(F)(F)C(F)(F)C(F)(F)C(F)(F)C(F)(F)C(F)(F)C(F)(F)C(F)(F)C(F)F [11-H-Perfluoroundecanoic acid]; details: in DMSO
Protocol: as §1

[3] = compound: O=C(O)C=CC(F)(C(F)(F)F)C(F)(F)F [3-(Perfluoroisopropyl)-2-propenoic acid]; details: in DMSO
Protocol: as §1

[4] = compound: FC(F)(F)C(F)(F)C(F)(F)CC1CO1 [1H,1H-Heptafluorobutyl epoxide]; details: in DMSO
Protocol: as §1

[5] = compound: O=S(=O)(F)C(F)(F)C(F)(F)C(F)(F)C(F)(F)C(F)(F)C(F)(F)C(F)(F)C(F)(F)F [Perfluorooctanesulfonyl fluoride]; details: in DMSO
Protocol: as §1

[6] = compound: FC(F)(F)C(F)(F)C(F)(F)C(F)(F)C(F)(F)C(F)(F)C(F)(F)I [1-Iodopentadecafluoroheptane]; details: in DMSO
Protocol: as §1

[7] = compound: NC(=O)C(F)(F)C(F)(F)C(F)(F)C(F)F; details: in DMSO
Protocol: as §1

[8] = compound: FC(F)(F)C(F)(F)C(F)(F)C(F)(F)C(F)(F)C(F)(F)CC1CO1 [3-(Perfluorohexyl)-1,2-epoxypropane]; details: in DMSO
Protocol: as §1

[9] = compound: COC(=O)C(F)(F)C(F)(F)OC(F)(C(F)(F)F)C(F)(F)OC(F)=C(F)F [Methyl perfluoro(3-(1-ethenyloxypropan-2-yloxy)propanoate)]; details: in DMSO
Protocol: as §1

Octafluoroadipamide = compound: NC(=O)C(F)(F)C(F)(F)C(F)(F)C(F)(F)C(N)=O [Octafluoroadipamide]; details: in DMSO
Protocol: as §1

[10] = compound: C=CC(=O)OCC(F)(F)C(F)(F)C(F)(F)COC(=O)C=C [1H,1H,5H,5H-Perfluoro-1,5-pentanediol diacrylate]; details: 6700 nM; in DMSO
Protocol: as §1

[11] = compound: FC(F)(F)C(F)(F)CNCC(F)(F)C(F)(F)F [Bis(1H,1H-perfluoropropyl)amine]; details: in DMSO
Protocol: as §1

[12] = compound: NS(=O)(=O)C(F)(F)C(F)(F)C(F)(F)C(F)(F)C(F)(F)C(F)(F)F [Perfluorohexanesulfonamide]; details: in DMSO
Protocol: as §1

Heptafluorobutyl iodide = compound: FC(F)(F)C(F)(F)C(F)(F)CI [Heptafluorobutyl iodide]; details: in DMSO
Protocol: as §1

[13] = compound: O=S(=O)(O)C(F)(F)C(F)(F)C(F)(F)C(F)(F)C(F)(F)C(F)(F)C(F)(F)C(F)(F)C(F)(F)C(F)(F)F [Sodium perfluorodecanesulfonate]; details: in DMSO
Protocol: as §1

[14] = compound: C=C(C)C(=O)OCCC(F)(F)C(F)(F)C(F)(F)C(F)(F)C(F)(F)C(F)(F)F [6:2 Fluorotelomer methacrylate]; details: in DMSO
Protocol: as §1

[15] = compound: O=S(=O)(O)CCC(F)(F)C(F)(F)C(F)(F)C(F)(F)C(F)(F)C(F)(F)F [6:2 Fluorotelomer sulfonic acid]; details: in DMSO
Protocol: as §1

Nonafluoropentanamide = compound: NC(=O)C(F)(F)C(F)(F)C(F)(F)C(F)(F)F [Nonafluoropentanamide]; details: in DMSO
Protocol: as §1

Hexafluoroamylene glycol = compound: OCC(F)(F)C(F)(F)C(F)(F)CO [Hexafluoroamylene glycol]; details: in DMSO
Protocol: as §1

MyoF:alpha-SM Actin
level (log10) ([1]; 6700 nM): 0.0635 ± 0.0064 | level (log10) ([1]; 20000 nM): 0.0665 ± 0.032 | level (log10) ([1]; 60000 nM): -0.0065 ± 0.03 | level (log10) ([2]; 6700 nM): -0.044 ± 0.033 | level (log10) ([2]; 20000 nM): -0.11 ± 0.033 | level (log10) ([3]; 6700 nM): 0.0065 ± 0.021 | level (log10) ([3]; 20000 nM): 0 ± 0.054 | level (log10) ([3]; 60000 nM): 0.0245 ± 0.011 | level (log10) ([4]; 6700 nM): 0.012 ± 0.028 | level (log10) ([4]; 20000 nM): -0.0095 ± 0.039 | level (log10) ([4]; 60000 nM): 0.0125 ± 0.08 | level (log10) ([5]; 6700 nM): -0.0005 ± 0.015 | level (log10) ([5]; 20000 nM): 0.004 ± 0.018 | level (log10) ([5]; 60000 nM): 0.0055 ± 0.021 | level (log10) ([6]; 6700 nM): -0.115 ± 0.016 | level (log10) ([6]; 20000 nM): -0.291 ± 0.045 | level (log10) ([7]; 6700 nM): -0.006 ± 0.0057 | level (log10) ([7]; 20000 nM): 0.0025 ± 0.023 | level (log10) ([7]; 60000 nM): -0.002 ± 0.033 | level (log10) ([8]; 6700 nM): 0.0205 ± 0.015 | level (log10) ([8]; 20000 nM): 0.0035 ± 0.0064 | level (log10) ([8]; 60000 nM): 0.0185 ± 0.0035 | level (log10) ([9]; 6700 nM): -0.023 ± 0.021 | level (log10) ([9]; 20000 nM): -0.043 ± 0.047 | level (log10) (Octafluoroadipamide; 6700 nM): 0.022 ± 0.061 | level (log10) (Octafluoroadipamide; 20000 nM): 0.0315 ± 0.056 | level (log10) (Octafluoroadipamide; 60000 nM): 0.0385 ± 0.032 | level (log10) [10]: -0.208 ± 0.024 | level (log10) ([11]; 6700 nM): 0.0315 ± 0.037 | level (log10) ([11]; 20000 nM): 0.0225 ± 0.046 | level (log10) ([11]; 60000 nM): 0.0245 ± 0.043 | level (log10) ([12]; 6700 nM): -0.003 ± 0.035 | level (log10) ([12]; 20000 nM): 0.01 ± 0.033 | level (log10) ([12]; 60000 nM): 0.004 ± 0.0057 | level (log10) (Heptafluorobutyl iodide; 6700 nM): 0.018 ± 0.0085 | level (log10) (Heptafluorobutyl iodide; 20000 nM): 0.026 ± 0.054 | level (log10) (Heptafluorobutyl iodide; 60000 nM): 0.0225 ± 0.032 | level (log10) ([13]; 1500 nM): 0.01 ± 0.0057 | level (log10) ([13]; 4400 nM): -0.0065 ± 0.013 | level (log10) ([13]; 13000 nM): 0.006 ± 0.025 | level (log10) ([13]; 40000 nM): 0.0175 ± 0.0021 | level (log10) ([14]; 6700 nM): 0.003 ± 0.011 | level (log10) ([14]; 20000 nM): -0.02 ± 0.038 | level (log10) ([14]; 60000 nM): -0.0015 ± 0.018 | level (log10) ([15]; 6700 nM): 0.016 ± 0.018 | level (log10) ([15]; 20000 nM): 0.001 ± 0.021 | level (log10) ([15]; 60000 nM): -0.02 ± 0.082 | level (log10) (Nonafluoropentanamide; 6700 nM): -0.023 ± 0.027 | level (log10) (Nonafluoropentanamide; 20000 nM): 0.0035 ± 0.04 | level (log10) (Nonafluoropentanamide; 60000 nM): -0.0055 ± 0.063 | level (log10) (Hexafluoroamylene glycol; 6700 nM): 0.024 ± 0.0085 | level (log10) (Hexafluoroamylene glycol; 20000 nM): 0.0155 ± 0.013 | level (log10) (Hexafluoroamylene glycol; 60000 nM): 0.025 ± 0.02

MyoF:bFGF
level (log10) ([1]; 6700 nM): -0.007 ± 0.014 | level (log10) ([1]; 20000 nM): -0.039 ± 0.0014 | level (log10) ([1]; 60000 nM): -0.029 ± 0.034 | level (log10) ([2]; 6700 nM): 0.006 ± 0.0099 | level (log10) ([2]; 20000 nM): 0.005 | level (log10) ([3]; 6700 nM): 0 ± 0.0028 | level (log10) ([3]; 20000 nM): 0.006 ± 0.027 | level (log10) ([3]; 60000 nM): 0.006 ± 0.017 | level (log10) ([4]; 6700 nM): -0.0035 ± 0.0035 | level (log10) ([4]; 20000 nM): -0.002 ± 0.0028 | level (log10) ([4]; 60000 nM): -0.0025 ± 0.015 | level (log10) ([5]; 6700 nM): 0 ± 0.0014 | level (log10) ([5]; 20000 nM): -0.0085 ± 0.00071 | level (log10) ([5]; 60000 nM): 0.0095 ± 0.018 | level (log10) ([6]; 6700 nM): 0.0165 ± 0.016 | level (log10) ([6]; 20000 nM): -0.0075 ± 0.015 | level (log10) ([7]; 6700 nM): -0.0125 ± 0.005 | level (log10) ([7]; 20000 nM): -0.008 ± 0.017 | level (log10) ([7]; 60000 nM): -0.0155 ± 0.005 | level (log10) ([8]; 6700 nM): 0.02 ± 0.02 | level (log10) ([8]; 20000 nM): 0.02 ± 0.018 | level (log10) ([8]; 60000 nM): 0.014 ± 0.0057 | level (log10) ([9]; 6700 nM): 0.016 ± 0.0099 | level (log10) ([9]; 20000 nM): 0.037 ± 0.021 | level (log10) (Octafluoroadipamide; 6700 nM): -0.0115 ± 0.015 | level (log10) (Octafluoroadipamide; 20000 nM): -0.014 ± 0.011 | level (log10) (Octafluoroadipamide; 60000 nM): 0.0135 ± 0.0078 | level (log10) [10]: 0.0025 ± 0.005 | level (log10) ([11]; 6700 nM): -0.0065 ± 0.013 | level (log10) ([11]; 20000 nM): -0.0045 ± 0.005 | level (log10) ([11]; 60000 nM): 0.013 ± 0.025 | level (log10) ([12]; 6700 nM): -0.0005 ± 0.00071 | level (log10) ([12]; 20000 nM): -0.001 ± 0.0042 | level (log10) ([12]; 60000 nM): -0.004 ± 0.023 | level (log10) (Heptafluorobutyl iodide; 6700 nM): 0.0115 ± 0.019 | level (log10) (Heptafluorobutyl iodide; 20000 nM): 0.01 ± 0.0028 | level (log10) (Heptafluorobutyl iodide; 60000 nM): 0.0115 ± 0.005 | level (log10) ([13]; 1500 nM): 0.0025 ± 0.005 | level (log10) ([13]; 4400 nM): 0.033 | level (log10) ([13]; 13000 nM): 0.015 ± 0.0057 | level (log10) ([13]; 40000 nM): 0.023 ± 0.011 | level (log10) ([14]; 6700 nM): -0.0025 ± 0.0064 | level (log10) ([14]; 20000 nM): -0.0115 ± 0.018 | level (log10) ([14]; 60000 nM): -0.0085 ± 0.011 | level (log10) ([15]; 6700 nM): -0.0065 ± 0.0078 | level (log10) ([15]; 20000 nM): 0.019 ± 0.013 | level (log10) ([15]; 60000 nM): 0.0235 ± 0.044 | level (log10) (Nonafluoropentanamide; 6700 nM): 0.0185 ± 0.023 | level (log10) (Nonafluoropentanamide; 20000 nM): -0.003 ± 0.0099 | level (log10) (Nonafluoropentanamide; 60000 nM): -0.007 ± 0.0057 | level (log10) (Hexafluoroamylene glycol; 6700 nM): -0.007 ± 0.017 | level (log10) (Hexafluoroamylene glycol; 20000 nM): 0.006 ± 0.0085 | level (log10) (Hexafluoroamylene glycol; 60000 nM): 0.0125 ± 0.019
